pIC50: −log10 of the molar value.
Experiments:
B16F10 cells = experiment: MTT cell activity, MITF-dependent melanoma cell line B16F10; assay type: cell-based; conditions: Mus musculus, B16-F10, MITF-dependent and highly expressed, read-out: IC50 of inhibiting growth of B16F10 cells
Experimental: (§1) The active TT012 was incubated with MITF-dependent and highly expressed melanoma cell line B16F10, the melanoma cell line A375 with low expression of MITF, and control cell line Hela, respectively, and cell activity was detected by MTT experiment.

[1] = test system: MITF landmark downstream genes-TYR and TRPM1; experiment: Fluorescent quantitative RT-PCR of MITF downstream genes in B16F10 cells; assay type: cell-based; conditions: Mus musculus, B16-F10, B16F10 cell line, read-out: IC50 of inhibiting mRNA levels of TYR and TRPM1
Experimental: TT-012 was incubated with melanoma cell B16F10 cell line, mRNA was extracted and reverse transcripted, and the transcription of MITF landmark downstream genes-TYR (tyrosinase) and TRPM1 (transient receptor potential cation channel M1) were detected by fluorescent quantitative PCR.

MITF dimer = biological target: T1, MITF dimer (Homo sapiens, UniProt O75030); experiment: AlphaScreen high-throughput screening model MIDAS (MITF Dependent Alpha-Screen), MITF dimer formation; assay type: binding; conditions: read-out: IC50 of inhibiting formation of MITF dimer
T1 sequence (O75030 1-526): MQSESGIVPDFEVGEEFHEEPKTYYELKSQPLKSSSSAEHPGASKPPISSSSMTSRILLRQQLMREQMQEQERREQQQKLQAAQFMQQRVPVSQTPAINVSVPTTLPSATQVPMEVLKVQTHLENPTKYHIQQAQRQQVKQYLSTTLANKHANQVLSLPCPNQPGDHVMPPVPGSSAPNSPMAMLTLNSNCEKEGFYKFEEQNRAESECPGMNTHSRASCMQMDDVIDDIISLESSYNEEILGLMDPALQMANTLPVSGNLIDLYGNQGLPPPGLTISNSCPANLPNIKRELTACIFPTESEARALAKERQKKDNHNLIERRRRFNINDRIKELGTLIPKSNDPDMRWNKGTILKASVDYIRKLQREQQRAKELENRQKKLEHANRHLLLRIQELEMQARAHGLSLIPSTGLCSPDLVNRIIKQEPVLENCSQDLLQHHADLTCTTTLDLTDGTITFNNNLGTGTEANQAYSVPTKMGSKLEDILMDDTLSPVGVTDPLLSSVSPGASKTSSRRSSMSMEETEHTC
Text: In the AlphaScreen high-throughput screening model MIDAS (MITF Dependent Alpha-Screen), MITF was labeled with a Biotin tag recognized by Alpha donor beads and a His tag recognized by Alpha receptor beads, respectively. When MITF formed a dimer, Alpha Donor beads and Alpha Receptor beads were pulled close to each other and detected by 680 nm excitation light and 520-620 nm emission light, thereby monitoring the formation of MITF dimer.

A375 cells = experiment: MTT cell activity, melanoma cell line A375 with low expression of MITF; assay type: cell-based
Experimental: as §1

Hela cells = experiment: MTT cell activity, control cell line Hela; assay type: cell-based
Experimental: as §1

LysRS-p38 interaction = LysRS-p38 interaction (Homo sapiens, UniProt Q13155+Q15046); experiment: AlphaScreen control test, LysRS-p38 interaction; assay type: binding
Sequence of LysRS-p38 interaction (Q15046 whole entry): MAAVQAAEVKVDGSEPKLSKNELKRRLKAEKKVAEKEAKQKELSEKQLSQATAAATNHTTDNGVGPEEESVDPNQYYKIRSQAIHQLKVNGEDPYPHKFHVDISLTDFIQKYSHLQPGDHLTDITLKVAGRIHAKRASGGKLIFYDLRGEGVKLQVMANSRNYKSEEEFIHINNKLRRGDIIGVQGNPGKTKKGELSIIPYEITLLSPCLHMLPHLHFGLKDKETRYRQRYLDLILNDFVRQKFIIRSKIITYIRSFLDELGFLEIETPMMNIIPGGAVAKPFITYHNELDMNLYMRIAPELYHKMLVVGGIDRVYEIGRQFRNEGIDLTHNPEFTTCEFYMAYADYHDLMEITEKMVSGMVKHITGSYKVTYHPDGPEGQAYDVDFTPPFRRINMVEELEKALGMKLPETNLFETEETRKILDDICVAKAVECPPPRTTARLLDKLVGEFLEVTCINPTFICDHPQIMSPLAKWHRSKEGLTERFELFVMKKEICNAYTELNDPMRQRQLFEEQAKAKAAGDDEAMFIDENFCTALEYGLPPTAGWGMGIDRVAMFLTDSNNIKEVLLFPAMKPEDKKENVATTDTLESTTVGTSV
Sequence of LysRS-p38 interaction (Q13155 whole entry): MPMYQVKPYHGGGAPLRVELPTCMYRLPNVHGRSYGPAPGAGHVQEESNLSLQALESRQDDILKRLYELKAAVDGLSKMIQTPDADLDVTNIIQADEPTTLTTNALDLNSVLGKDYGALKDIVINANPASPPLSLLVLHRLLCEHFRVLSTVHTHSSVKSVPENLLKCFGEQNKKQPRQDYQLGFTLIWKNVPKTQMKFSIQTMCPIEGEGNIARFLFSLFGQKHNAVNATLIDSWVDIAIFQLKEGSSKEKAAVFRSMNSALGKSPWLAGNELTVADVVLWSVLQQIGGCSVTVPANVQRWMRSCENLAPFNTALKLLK

melanin formation = experiment: Forskolin-induced melanin production; assay type: cell-based
Text: MITF regulated the transcription and expression of melanin synthase TYR, TYRP1, and is the main regulatory factor of melanin formation. Foskolin, a small molecule compound, could regulate pathway, promote the expression of MITF, and promote melanin production by activating MSH-cAMP-CREB.

SMILES: O=C(/C=C/c1ccco1)Nc1cccc(NC(=O)/C=C/c2ccco2)n1 [TT-012]
- pIC50 (B16F10 cells): 6.52
- pIC50 [1]: 5.70
- pIC50 (MITF dimer): 8.00
- killing effect on A375 cells (A375 cells): no killing effects
- killing effect on control cells HELA (Hela cells): no killing effects
- effect on AlphaScreen signal of LysRS-p38 interaction (LysRS-p38 interaction): not affect
- inhibition of melanin formation (melanin formation): effectively inhibit

From US11077097B2, “Use of aromatic ring drug in inhibiting key transcription factor of malignant melanoma” (SHANGHAI INSTITUTE OF ORGANIC CHEMISTRY, CHINESE ACADEMY OF …, priority 2017, dated 2021)
